In patent US9714243B2, “4-pyridinonetriazine derivatives as HIV integrase inhibitors” (Merck Sharp & Dohme Corp., priority 2012, dated 2017):
Like-named read-outs stand apart in the source and are kept apart here.

System: HIV-1 (NL4-3 strain)
Assay: Assay for inhibition of HIV replication (ViKinG; infected MT4-GFP cells)
Type: cell-based
Description: Assay for inhibition of HIV replication
MT4-GFP cells (250,000 cells/ml) were bulk-infected with HIV-1 (NL4-3 strain) at low multiplicity of infection (MOI) in RPMI+10% FBS for 24 hours. […] Test compounds were serial-diluted in DMSO on ECHO. The infected MT4-GFP cells were added to a 384-well poly-D-lysine coated black plate with clear bottom in which the diluted test compounds were placed. The cells were seeded at 8,000 cells per well and the final DMSO concentration was 0.4%. The infected cells (Green GFP cells) were quantified at both 24 and 48 hours post incubation using Acumen eX3. Viral reproductive ratio (R0) was determined using the number of infected cells at 48 hours divided by the number of infected cells at 24 hours. Percent viral growth inhibition was calculated by [1−(R−Rtripledrug)/(RDMSO−Rtripledrug)]*100. Compound potency IP or IC50 was determined by a 4-parameter dose response curve analysis.

[1] = MT4-GFP cells infected with HIV-1 NL4-3, 0% normal human serum (NHS), read-out: ViKinG IP (nM) with 0% NHS
[2] = MT4-GFP cells infected with HIV-1 NL4-3, 100% normal human serum (NHS), read-out: ViKinG IP (nM) with 100% NHS
[3] = MT4-GFP cells infected with HIV-1 NL4-3, 10% normal human serum (NHS), read-out: ViKinG IP (nM) with 10% NHS
[4] = Human immunodeficiency virus 1, NL43, MT4-GFP cells infected with HIV-1 NL4-3, 0% normal human serum (NHS), read-out: ViKinG IP (nM) with 0% NHS
[5] = Human immunodeficiency virus 1, NL43, MT4-GFP cells infected with HIV-1 NL4-3, 10% normal human serum (NHS), read-out: ViKinG IP (nM) with 10% NHS
[6] = Human immunodeficiency virus 1, NL43, MT4-GFP cells infected with HIV-1 NL4-3, 100% normal human serum (NHS), read-out: ViKinG IP (nM) with 100% NHS

| Compound | IC50 [1] [nM] | IC50 [3] [nM] | further results |
| --- | --- | --- | --- |
| CCN1C(=O)c2c(O)c(=O)c(-c3nnc(Cc4ccc(F)cc4F)s3)cn2N(C)C12CCC(C(=O)N(C)CC(F)(F)F)CC2 (stereo not drawn) [Compound 103] | 6.88 | – | IC50 [2]: 143 nM |
| CN1C(=O)c2c(O)c(=O)c(-c3nnc(Cc4ccc(F)cc4F)s3)cn2N(C)C12CCC(C(N)=O)CC2 (stereo not drawn) [Compound 106] | 186 | 812 | – |
| CN1C(=O)c2c(O)c(=O)c(-c3nnc(Cc4ccc(F)cc4F)s3)cn2N(C)C12CCC(C(N)=O)CC2 (stereo not drawn) [Compound 107] | 4.96 | 46.4 | – |
| CN(CC(F)(F)F)C(=O)C1CCC2(CC1)N(C)C(=O)c1c(O)c(=O)c(-c3nnc(Cc4ccc(F)cc4F)s3)cn1N2C (stereo not drawn) [Compound 108] | – | – | IC50 [4]: 24 nM; IC50 [5]: 16.1 nM; IC50 [6]: 478 nM |
| CN(C(=O)C1CCC2(CC1)N(C)C(=O)c1c(O)c(=O)c(-c3nnc(Cc4ccc(F)cc4F)s3)cn1N2C)C1CC1 (stereo not drawn) [Compound 109] | 12.1 | – | IC50 [5]: 18.2 nM |
| CN(C(=O)C1CCC2(CC1)N(C)C(=O)c1c(O)c(=O)c(-c3nnc(Cc4ccc(F)cc4F)s3)cn1N2C)C1CC1 (stereo not drawn) [Compound 110] | 5.82 | 10.7 | – |
| CN1C(=O)c2c(O)c(=O)c(-c3nnc(Cc4ccc(F)cc4F)s3)cn2N(C)C12CCC(C(=O)NCC(F)(F)F)CC2 (stereo not drawn) [Compound 111] | 26.6 | 193 | – |
| CN1C(=O)c2c(O)c(=O)c(-c3nnc(Cc4ccc(F)cc4F)s3)cn2N(C)C12CCC(C(=O)NCC(F)(F)F)CC2 (stereo not drawn) [Compound 112] | 3.36 | 11.1 | – |
| CN1C(=O)c2c(O)c(=O)c(-c3nnc(Cc4ccc(F)cc4F)s3)cn2N(C)C12CCC(C(=O)NC1(C)CC1)CC2 (stereo not drawn) [Compound 113] | 22.2 | 72.2 | – |
| CN1C(=O)c2c(O)c(=O)c(-c3nnc(Cc4ccc(F)cc4F)s3)cn2N(C)C12CCC(C(=O)NC1(C)CC1)CC2 (stereo not drawn) [Compound 114] | 4.69 | 9.07 | – |
| CN1C(=O)c2c(O)c(=O)c(-c3nnc(Cc4ccc(F)cc4F)s3)cn2N(C)C12CCC(C(=O)N1CCCC1)CC2 (stereo not drawn) [Compound 115] | 16.4 | 39.5 | – |
| CN1C(=O)c2c(O)c(=O)c(-c3nnc(Cc4ccc(F)cc4F)s3)cn2N(C)C12CCC(C(=O)N1CCCC1)CC2 (stereo not drawn) [Compound 116] | 3.94 | 15.2 | – |
| CN1C(=O)c2c(O)c(=O)c(-c3nnc(Cc4ccc(F)cc4F)s3)cn2N(C)C12CCC(C(=O)N1CCC(F)(F)C1)CC2 (stereo not drawn) [Compound 117] | – | 42.7 | IC50 [4]: 20.4 nM |
| CN1C(=O)c2c(O)c(=O)c(-c3nnc(Cc4ccc(F)cc4F)s3)cn2N(C)C12CCC(C(=O)N1CCC(F)(F)C1)CC2 (stereo not drawn) [Compound 118] | 14.4 | 8.43 | – |
| CN1C(=O)c2c(O)c(=O)c(-c3nnc(Cc4ccc(F)cc4F)s3)cn2N(C)C12CCC(C(=O)N1CC(F)(F)C1)CC2 (stereo not drawn) [Compound 119] | – | 35.6 | IC50 [4]: 5.26 nM; IC50 [2]: 189 nM |
| CN1C(=O)c2c(O)c(=O)c(-c3nnc(Cc4ccc(F)cc4F)s3)cn2N(C)C12CCC(C(=O)N1CC(F)(F)C1)CC2 (stereo not drawn) [Compound 120] | 5.51 | 11.7 | IC50 [2]: 516 nM |
| COCCNC(=O)C1CCC2(CC1)N(C)C(=O)c1c(O)c(=O)c(-c3nnc(Cc4ccc(F)cc4F)s3)cn1N2C (stereo not drawn) [Compound 121] | 102 | 240 | – |
| COCCNC(=O)C1CCC2(CC1)N(C)C(=O)c1c(O)c(=O)c(-c3nnc(Cc4ccc(F)cc4F)s3)cn1N2C (stereo not drawn) [Compound 122] | 5.51 | 18.4 | – |
| CN1C(=O)c2c(O)c(=O)c(-c3nnc(Cc4ccc(F)cc4F)s3)cn2N(C)C12CCC(C(=O)NCC1(O)CC1)CC2 (stereo not drawn) [Compound 123] | 47.1 | 103 | – |
| CN1C(=O)c2c(O)c(=O)c(-c3nnc(Cc4ccc(F)cc4F)s3)cn2N(C)C12CCC(C(=O)NCC1(O)CC1)CC2 (stereo not drawn) [Compound 124] | 11.3 | 22.6 | – |
| CN(C)CCNC(=O)C1CCC2(CC1)N(C)C(=O)c1c(O)c(=O)c(-c3nnc(Cc4ccc(F)cc4F)s3)cn1N2C (stereo not drawn) [Compound 125] | 374 | 543 | – |
| CN(C)CCNC(=O)C1CCC2(CC1)N(C)C(=O)c1c(O)c(=O)c(-c3nnc(Cc4ccc(F)cc4F)s3)cn1N2C (stereo not drawn) [Compound 126] | 24.3 | 82.2 | – |
| CN1C(=O)c2c(O)c(=O)c(-c3nnc(Cc4ccc(F)cc4F)s3)cn2N(C)C12CCC(C(=O)NCc1cnoc1)CC2 (stereo not drawn) [Compound 127] | – | 376 | IC50 [4]: 112 nM |
| CN1C(=O)c2c(O)c(=O)c(-c3nnc(Cc4ccc(F)cc4F)s3)cn2N(C)C12CCC(C(=O)NCc1cnoc1)CC2 (stereo not drawn) [Compound 128] | 81.8 | 101 | – |

| Compound | IC50 [1] [nM] | IC50 [3] [nM] | further results |
| --- | --- | --- | --- |
| CN1C(=O)c2c(O)c(=O)c(-c3nnc(Cc4ccc(F)cc4F)s3)cn2N(C)C12CCC(C(=O)NCC1CCOC1)CC2 (stereo not drawn) [Compound 129] | 67.7 | 1080 | – |
| CN1C(=O)c2c(O)c(=O)c(-c3nnc(Cc4ccc(F)cc4F)s3)cn2N(C)C12CCC(C(=O)NCC1CCOC1)CC2 (stereo not drawn) [Compound 130] | 13.7 | 33.9 | – |
| CN1C(=O)c2c(O)c(=O)c(-c3nnc(Cc4ccc(F)cc4F)s3)cn2N(C)C12CCC(C(=O)NCc1cn(C)cn1)CC2 (stereo not drawn) [Compound 131] | 459 | 642 | – |
| CN1C(=O)c2c(O)c(=O)c(-c3nnc(Cc4ccc(F)cc4F)s3)cn2N(C)C12CCC(C(=O)NCc1cn(C)cn1)CC2 (stereo not drawn) [Compound 132] | 109 | 173 | – |
| CN1C(=O)c2c(O)c(=O)c(-c3nnc(Cc4ccc(F)cc4F)s3)cn2N(C)C12CCC(C(=O)NCc1cncs1)CC2 (stereo not drawn) [Compound 133] | 190 | 548 | – |
| CN1C(=O)c2c(O)c(=O)c(-c3nnc(Cc4ccc(F)cc4F)s3)cn2N(C)C12CCC(C(=O)NCc1cncs1)CC2 (stereo not drawn) [Compound 134] | 20.9 | 122 | – |
| COc1cc(CNC(=O)C2CCC3(CC2)N(C)C(=O)c2c(O)c(=O)c(-c4nnc(Cc5ccc(F)cc5F)s4)cn2N3C)on1 (stereo not drawn) [Compound 135] | 76.3 | – | IC50 [5]: 290 nM |
| COc1cc(CNC(=O)C2CCC3(CC2)N(C)C(=O)c2c(O)c(=O)c(-c4nnc(Cc5ccc(F)cc5F)s4)cn2N3C)on1 (stereo not drawn) [Compound 136] | 30.8 | 151 | – |
| CN1C(=O)c2c(O)c(=O)c(-c3nnc(Cc4ccc(F)cc4F)s3)cn2N(C)C12CCC(C(=O)NCC1CCS(=O)(=O)C1)CC2 (stereo not drawn) [Compound 137] | 108 | – | IC50 [5]: 707 nM |
| CN1C(=O)c2c(O)c(=O)c(-c3nnc(Cc4ccc(F)cc4F)s3)cn2N(C)C12CCC(C(=O)NCC1CCS(=O)(=O)C1)CC2 (stereo not drawn) [Compound 138] | 445 | 1180 | – |
| CN(CCNC(=O)C1CCC2(CC1)N(C)C(=O)c1c(O)c(=O)c(-c3nnc(Cc4ccc(F)cc4F)s3)cn1N2C)C(=O)OC(C)(C)C (stereo not drawn) [Compound 139] | – | 186 | IC50 [4]: 54.3 nM |
| CN(CCNC(=O)C1CCC2(CC1)N(C)C(=O)c1c(O)c(=O)c(-c3nnc(Cc4ccc(F)cc4F)s3)cn1N2C)C(=O)OC(C)(C)C (stereo not drawn) [Compound 140] | 61.6 | 28.2 | – |
| CN1C(=O)c2c(O)c(=O)c(-c3nnc(Cc4ccc(F)cc4F)s3)cn2N(C)C12CCC(C(=O)NC1CC1)C2 (stereo not drawn) [Compound 141] | – | – | IC50 [4]: 59.7 nM; IC50 [6]: 1990 nM |
| CN1C(=O)c2c(O)c(=O)c(-c3nnc(Cc4ccc(F)cc4F)s3)cn2N(C)C12CC[C@@H](C(=O)NC1CC1)C(C)(C)C2 (stereo partly drawn) [Compound 142] | – | – | IC50 [4]: 5.63 nM; IC50 [6]: 558 nM |
| CN1C(=O)c2c(O)c(=O)c(-c3nnc(Cc4ccc(F)cc4F)s3)cn2N(C)C12CC[C@@H](C(=O)NC1CC1)C(C)(C)C2 (stereo partly drawn) [Compound 143] | 7.48 | – | IC50 [2]: 817 nM |
| CC(C)[C@]1(C(=O)NC2CC2)CCC2(C1)N(C)C(=O)c1c(O)c(=O)c(-c3nnc(Cc4ccc(F)cc4F)s3)cn1N2C (stereo partly drawn) [Compound 144] | – | – | IC50 [4]: 10.7 nM; IC50 [6]: 205 nM |
| CN(C)C(=O)C1CCC2(CC1)N(C)C(=O)c1c(O)c(=O)c(-c3nnc(Cc4ccc(F)cc4)s3)cn1N2C (stereo not drawn) [Compound 145] | – | 102 | – |
| CN(C)C(=O)C1CCC2(CC1)N(C)C(=O)c1c(O)c(=O)c(-c3nnc(Cc4ccc(F)cc4)s3)cn1N2C (stereo not drawn) [Compound 146] | – | 9.02 | IC50 [6]: 188 nM |
| CN(C)C(=O)C1(C)CCC2(CC1)N(C)C(=O)c1c(O)c(=O)c(-c3nnc(Cc4ccc(F)cc4)s3)cn1N2C (stereo not drawn) [Compound 147] | – | – | IC50 [5]: 15.1 nM; IC50 [6]: 117 nM |
| CN(C)C(=O)C1(C)CCC2(CC1)N(C)C(=O)c1c(O)c(=O)c(-c3nnc(Cc4ccc(F)cc4)s3)cn1N2C (stereo not drawn) [Compound 148] | – | 8.6 | IC50 [2]: 119 nM |
| C[C@H]1CC2(CC[C@@H]1C(=O)N(C)C)N(C)C(=O)c1c(O)c(=O)c(-c3nnc(Cc4ccc(F)cc4)s3)cn1N2C (stereo partly drawn) [Compound 149] | – | – | IC50 [5]: 43.7 nM |
| C[C@@H]1CC2(CC[C@@H]1C(=O)N(C)C)N(C)C(=O)c1c(O)c(=O)c(-c3nnc(Cc4ccc(F)cc4)s3)cn1N2C (stereo partly drawn) [Compound 150] | – | – | IC50 [4]: 13.3 nM; IC50 [5]: 18.9 nM; IC50 [6]: 221 nM |
| CN1C2CCCCN2C(=O)c2c(O)c(=O)c(-c3nnc(Cc4ccc(F)cc4)s3)cn21 (stereo not drawn) [Compound 153] | – | 16.5 | IC50 [6]: 1430 nM |
